Entries after “also recorded” stand apart in the source; their conditions may differ.
Assays:
PBM cells = test: Cellular pharmacology in PBM cells: intracellular nucleoside triphosphate levels; assay type: in vitro ADME, human
HIV-1LAI = test: HIV-1 susceptibility assay in human PBM cells infected with HIV-1LAI; assay type: cell-based; details: for fold greater potency versus HIV-1 compared to parent nucleoside: phosphoramidate versus parent nucleoside
HBV = test: Antiviral activity against HBV in the HepAD38 cell system; assay type: cell-based
[1] = tested on: five tested cell lines (PBM, HepG2, Huh7, Vero, CEM); test: Cytotoxicity across the five tested cell systems; assay type: cell-based

Compound	formation of dioxolane-A triphosphate (PBM cells)	fold greater potency versus HIV-1 compared to parent nucleoside (HIV-1LAI)	further results
Nc1ncnc2c1ncn2[C@H]1CO[C@@H](CO)O1 [Compound 6, (−)-β-D-(2R,4R)-6-amino dioxolane adenosine]	found to form the dioxolane-A triphosphate		
OC[C@@H]1OC[C@H](n2cnc3c(NC4CC4)ncnc32)O1 [Compound 8]			activity versus HIV (HIV-1LAI): essentially not active; activity versus HBV (HBV): essentially not active; cytotoxicity in the five tested cell lines [1]: did not display any cytotoxicity
CCOC(=O)[C@H](C)NP(=O)(OC[C@@H]1OC[C@H](n2cnc3c(N)ncnc32)O1)Oc1ccccc1 (stereo partly drawn) [Compound 17]	found to form the dioxolane-A triphosphate; also recorded: highest levels of dioxolane-A triphosphate	up to 3,600 fold	
CCOC(=O)CCc1ccccc1OP(=O)(N[C@@H](C)C(=O)OCC)OC[C@@H]1OC[C@H](n2cnc3c(N)ncnc32)O1 (stereo partly drawn) [Compound 18]	found to form the dioxolane-A triphosphate; also recorded: highest levels of dioxolane-A triphosphate	up to 3,600 fold	
CCOC(=O)[C@H](C)NP(=O)(OC[C@@H]1OC[C@H](n2cnc3c(OC)ncnc32)O1)Oc1ccccc1 (stereo partly drawn) [Compound 19]		up to 3,600 fold	
CCOC(=O)CCc1ccccc1OP(=O)(N[C@@H](C)C(=O)OCC)OC[C@@H]1OC[C@H](n2cnc3c(OC)ncnc32)O1 (stereo partly drawn) [Compound 20]		up to 3,600 fold	
CCOC(=O)[C@H](C)NP(=O)(OC[C@@H]1OC[C@H](n2cnc3c(NC4CC4)ncnc32)O1)Oc1ccccc1 (stereo partly drawn) [Compound 22]	found to form the dioxolane-A triphosphate	up to 3,600 fold	cytotoxicity in the five tested cell lines [1]: no observed cytotoxicity
CCOC(=O)CCc1ccccc1OP(=O)(N[C@@H](C)C(=O)OCC)OC[C@@H]1OC[C@H](n2cnc3c(NC4CC4)ncnc32)O1 (stereo partly drawn) [Compound 23]	found to form the dioxolane-A triphosphate		
Nc1nc(N)c2ncn([C@H]3CO[C@@H](CO)O3)c2n1 [DAPD, Amdoxovir, reference compound]			activity versus HBV (HBV): low micromolar
